Laboratory results from patent publication US12377152B2, “Compounds for degrading alpha-synuclein aggregates and uses thereof” (APRINOIA THERAPEUTICS LIMITED, priority 2019, dated 2025).

Key:
[1] = molecular target: T1, α-synuclein (Homo sapiens (Human), UniProt P37840); experiment: PBB5 competition assay; type: binding; details: 2 μM α-synuclein, 0.26 μM PBB5, 37° C., 1 hour
Procedure: (§1) (A) Expression and purification of recombinant wild-type human α-synuclein: 0.5 mM IPTG was used to induce production of wild type human α-synuclein by bacteria transformed with a full-length α-synuclein expression plasmid. After shaking at 16° C. for 20 hours, cell pellet was resuspended in lysis buffer (10 mM Tris, 1 mM EGTA, 0.75 mM NaCl, 1 mM PMSF, pH 7.5) and lysed by sonication followed by centrifugation (6000 g, 30 min, 4° C.). The supernatant was then boiled at 95° C. for 15 min with manual agitation by every 5 minutes, followed by centrifugation (6000 g, 30 min, 4° C.). Supernatant was dialyzed with (10 mM Tris, 1 mM EGTA, 50 mM NaCl, pH 7.5) buffer and concentrated with concentrator. The collected sample was loaded onto a Superdex200 column, the flow-through fraction was then loaded onto a Q-HP column. Collected fractions with α-synuclein eluates were pooled, concentrated and stored at −80° C.
(§2) (B) Preparation of aggregated α-synuclein: 5 mg/mL of α-synuclein in PBS buffer (pH 7.4) was incubated in tube with at 37° C. with shaking (700 rpm) for 5-10 days.
(D) PBB5 competition assay: 2 μM of α-synuclein was incubated with 0.26 μM 2-(4-(2-(methylamino)pyridine-5-yl)-1,3-butadiene-1-yl)benzothiazole-6-ol (PBB5) and serially diluted compound (three-fold serial dilution, from 10 to 0.001 μM) in a 96-well plate at 37° C. for 1 hour. Fluorescence intensity (excitation/emission=530/690 nm) of PBB5 was read by microplate spectrometer. Percentage of competition was calculated using the following equation: (Max−well of compound alone)/(Max−Min)*100%, where Max=(α-synuclein+PBB5) signals−(buffer+PBB5) signals; and Min=(buffer+PBB5) signals−(buffer+PBB5) signals. The IC50 value of each compound was calculated with GraphPad Prism software using the “4 Parameter Logistic Model or Sigmoidal Dose-Response Model”: Y=Bottom+(Top−Bottom)/(1+(IC50/X)^HillSlope)

[2] = molecular target: T1, α-synuclein; experiment: In vitro fluorometric α-synuclein binding assay; details: 2 μM α-synuclein, 37° C., 1 hour, fluorescence
Procedure: as §1, §2
(C) In vitro fluorometric α-synuclein binding assays: 2 μM α-synuclein was incubated with serially diluted compound (three-fold serial dilutions, from 10 to 0.001 μM) in a 96-well plate at 37° C. for 1 hour. Fluorescence intensity was read by microplate spectrometer. Compound Kd values were calculated using the following equation: Y=Bmax*X/(Kd+X), where X is the concentration of compound; Y is the fluorescence signal of (compound+α-synuclein)−(compound+DMSO); and Bmax is the maximum signal.

[3] = molecular target: α-synuclein aggregates (Homo sapiens (Human), UniProt P37840); experiment: ReNcell VM α-synuclein aggregation assay; type: cell-based; details: for DC50: ReNcell VM cells, read-out: Activity (DC50, concentration at which 50% of α-synuclein aggregates has been degraded); for inhibition of MJFR14 immunoreactivity: 24 hour treatment, differentiated ReNcell VM cells
Procedure: The ReNcell VM α-synuclein aggregation assay was conducted at Charles River Laboratories (CRL). ReNcell VM is an immortalized human neural progenitor cell line derived from the ventral mesencephalon region of the brain. ReNcell VM cells were selected as in vitro cellular model for the α-synuclein aggregation assay, based on their growth features, differentiation potential into terminally differentiated neurons and amenability to adenoviral transduction. Aggregated human wild type α-synuclein was overexpressed through adenoviral delivery. Aggregated α-synuclein was detected with the aggregate-selective anti-α-synuclein antibody MJFR14 using immunocytochemistry; total α-synuclein levels were detected with Syn205 (α/β-synuclein-specific antibody).
The ReNcell VM α-synuclein aggregation assay was applied for compound screening to identify compounds capable of degrading α-synuclein aggregates. […] Immunoreactivity toward aggregated (MJFR14) and total α-synuclein (Syn205) was quantified using high content-based segmentation of immunoactive areas in immunocytochemical images (performed with the IN Cell 2200 (GE Healthcare)), followed by quantification of immunofluorescent intensity (performed by CRL's developed algorithm using IN Cell Developer Toolbox software).
Percentage effect (PE): Inhibition in comparison to BLANK (0.1% DMSO).
PE=100−(signal of compound/average signal BLANK)×100
Compound-induced cytotoxicity (% remaining cells)
% remaining cells=(nuclei count of compound/average nuclei count of BLANK)×100

| Compound | DC50 [3] [µM] | inhibition of MJFR14 immunoreactivity [3] | IC50 [1] [µM] | Kd [2] [µM] |
| --- | --- | --- | --- | --- |
| CN(C)c1ccc(-c2ccc(-c3nc4ccc(OCCOCCOc5ccc6c(c5)CN(C5CCC(=O)NC5=O)C6=O)cc4s3)cc2)cn1 (stereo not shown) [Compound 163123] | > 10 | – | > 10 | 0.26 |
| COc1ccc2nc(-c3ccc(-c4ccnc(NCCCCCOc5ccc6c(c5)CN(C5CCC(=O)NC5=O)C6=O)c4)cc3)cn2c1 (stereo not shown) [Compound 165802] | > 10 | – | > 10 | 2.44 |
| O=C1CCC(N2Cc3cc(OCCCCCNc4cc(-c5ccc(-c6nc7ccc(F)cc7s6)cc5)ccn4)ccc3C2=O)C(=O)N1 (stereo not shown) [Compound 165825] | – | – | > 10 | – |
| O=C1CCC(N2Cc3cc(OCCCC(=O)Nc4ccc(-c5ccc(-c6cc7ccncc7[nH]6)cc5)cn4)ccc3C2=O)C(=O)N1 (stereo not shown) [Compound 166099] | > 10 | – | 0.04 | 5.63 |
| COc1ccc2nc(-c3ccc(-c4ccnc(NCCOCCOc5ccc6c(c5)CN(C5CCC(=O)NC5=O)C6=O)c4)cc3)oc2c1 (stereo not shown) [Compound 166123] | – | – | 0.41 | 0.48 |
| CN(C)c1ccc(-c2ccc(-c3nc4ccc(C(=O)OCCOCCOCCOc5ccc6c(c5)CN(C5CCC(=O)NC5=O)C6=O)cc4s3)cc2)cn1 (stereo not shown) [Compound 166124] | – | – | 0.03 | 0.34 |
| CN(C)c1ccc(-c2ccc(-c3nc4c(OCCOCCOc5ccc6c(c5)CN(C5CCC(=O)NC5=O)C6=O)cccc4s3)cc2)cn1 (stereo not shown) [Compound 166330] | > 10 | – | 2.6 | 0.59 |
| O=C1CCC(N2Cc3cc(OCCOCCNc4cc(-c5ccc(-c6nc7ccc(F)cc7s6)c(C(F)(F)F)c5)ccn4)ccc3C2=O)C(=O)N1 (stereo not shown) [Compound 166965] | – | – | 10 | 0.22 |
| CN(C)c1ccc(-c2ccc(-c3nc4ccc(NCCOCCNc5cccc6c5C(=O)N(C5CCC(=O)NC5=O)C6=O)cc4s3)cc2)cn1 (stereo not shown) [Compound 170356] | > 10 | – | – | – |
| CN(C)c1ccc(-c2ccc(-c3nc4ccc(NC(=O)CCOCCOCCOc5ccc6c(c5)CN(C5CCC(=O)NC5=O)C6=O)cc4s3)cc2)cn1 (stereo not shown) [Compound 170357] | 0.01 to 0.9 | concentration-dependent inhibition | – | – |
| CN(C)c1ccc(-c2ccc(-c3nc4ccc(NC(=O)CCCOc5ccc6c(c5)CN(C5CCC(=O)NC5=O)C6=O)cc4s3)cc2)cn1 (stereo not shown) [Compound 170742] | > 10 | – | – | – |
| CN(C)c1ccc(-c2ccc(-c3nc4ccc(OCCOCCOCCOc5ccc6c(c5)CN(C5CCC(=O)NC5=O)C6=O)cc4s3)c(C(F)(F)F)c2)cn1 (stereo not shown) [Compound 174251] | > 10 | – | – | – |
| O=C1CCC(N2Cc3cc(OCCOCCOc4ccc5nc(-c6ccc(-c7ccc(NC8CC8)nc7)cc6)sc5c4)ccc3C2=O)C(=O)N1 (stereo not shown) [Compound 177032] | > 10 | – | – | 0.06 |
| COc1ccc2nc(-c3ccc(-c4ccc(NCCOCCOc5cccc6c5C(=O)N(C5CCC(=O)NC5=O)C6=O)nc4)cc3)sc2c1 (stereo not shown) [Compound 177038] | > 10 | – | – | – |
| COc1ccc2nc(-c3ccc(-c4ccc(NCCOCCOc5ccc6c(c5)CN(C5CCC(=O)NC5=O)C6=O)nc4)cc3)sc2c1 (stereo not shown) [Compound 177039] | > 10 | – | – | – |
| CN(C)c1ccc(-c2ccc(-c3nc4ccc(OCCOCCOc5cccc6c5C(=O)N(C5CCC(=O)NC5=O)C6=O)cc4s3)cc2)cn1 (stereo not shown) [Compound 180944] | – | – | 0.61 | 0.43 |
| COc1ccc2nc(-c3ccc(-c4ccnc(NCCOCCOc5cccc6c5CN(C5CCC(=O)NC5=O)C6=O)c4)cc3)cn2c1 (stereo not shown) [Compound 190753] | > 10 | – | – | – |

Continued, in another order:

| DC50 [3] [µM] | inhibition of MJFR14 immunoreactivity [3] | Compound | IC50 [1] [µM] | Kd [2] [µM] |
| --- | --- | --- | --- | --- |
| 0.9 to 10 | – | CN(C)c1ccc2nc(-c3ccc(-c4ccc(NCCOCCN5C(=O)CCC(N6C(=O)c7ccc(O)cc7C6=O)C5=O)nc4)cc3)sc2c1 (stereo not shown) [Compound 170351] | – | – |
| > 10 | – | CN(C)c1ccc2nc(-c3ccc(-c4ccc(NCCOCCOc5ccc6c(c5)CN(C5CCC(=O)NC5=O)C6=O)nc4)cc3)sc2c1 (stereo not shown) [Compound 170352] | – | – |
| > 10 | – | CN(C)c1ccc2nc(-c3ccc(-c4ccc(NCCOCCOc5ccc6c(c5)C(=O)N(C5CCC(=O)NC5=O)C6=O)nc4)cc3)sc2c1 (stereo not shown) [Compound 170353] | – | – |
| 0.01 to 0.9 | – | O=C1CCC(N2C(=O)c3ccc(OCCOCCNc4ccc(-c5ccc(-c6cc7ccncc7[nH]6)cc5)cn4)cc3C2=O)C(=O)N1 (stereo not shown) [Compound 170354] | – | – |
| > 10 | – | CN(C)c1ccc(-c2ccc(-c3nc4ccc(NCCOCCOCCOCCOCCOCCNc5cccc6c5C(=O)N(C5CCC(=O)NC5=O)C6=O)cc4s3)cc2)cn1 (stereo not shown) [Compound 170355] | – | – |
| > 10 | – | CN(C)c1ccc(-c2ccc(-c3nc4ccc(NC(=O)CCOCCOc5ccc6c(c5)CN(C5CCC(=O)NC5=O)C6=O)cc4s3)cc2)cn1 (stereo not shown) [Compound 170358] | – | – |
| > 10 | – | CN(C)c1ccc(-c2ccc(-c3cn4cc(OCCOCCOc5ccc6c(c5)CN(C5CCC(=O)NC5=O)C6=O)ccc4n3)cc2)c(F)n1 (stereo not shown) [Compound 170450] | – | – |
| > 10 | – | CN(C)c1ccc(-c2ccc(-c3cn4cc(OCCCCCOc5ccc6c(c5)CN(C5CCC(=O)NC5=O)C6=O)ccc4n3)cc2)c(F)n1 (stereo not shown) [Compound 170451] | – | – |
| > 10 | – | CN(C)c1ccc(-c2ccc(-c3nc4ccc(OC(=O)CCOCCOc5ccc6c(c5)CN(C5CCC(=O)NC5=O)C6=O)cc4s3)cc2)cn1 (stereo not shown) [Compound 175552] | – | – |
| > 10 | – | CN(C)c1ccc2nc(-c3ccc(-c4ccc(NCCOCCOc5ccc6c(c5)CN(C5CCC(=O)NC5=O)C6=O)nc4)cc3C(F)(F)F)sc2c1 (stereo not shown) [Compound 177031] | – | – |
| > 10 | – | CN1C(=O)CCC(N2Cc3cc(OCCOCCOc4ccc5nc(-c6ccc(-c7ccc(N(C)C)nc7)cc6)sc5c4)ccc3C2=O)C1=O (stereo not shown) [Compound 177036] | – | – |
| 0.9 to 10 | – | COc1ccc2nc(-c3ccc(-c4ccc(NCCOCCOc5ccc6c(c5)CN(C5CCC(=O)NC5=O)C6=O)nc4)cc3)cn2c1 (stereo not shown) [Compound 177037] | – | – |
| > 10 | – | COc1ccc2nc(-c3ccc(-c4ccnc(NCCOCCOCC(=O)NC(C(=O)N5C[C@H](O)C[C@H]5C(=O)NCc5ccc(-c6scnc6C)cc5)C(C)(C)C)c4)cc3)cn2c1 (stereo partly shown) [Compound 177685] | – | – |
| > 10 | – | Cc1ncsc1-c1ccc(CNC(=O)[C@@H]2C[C@@H](O)CN2C(=O)[C@@H](NC(=O)COCCOCCOc2ccc3nc(-c4ccc(-c5ccc(N(C)C)nc5)cc4)sc3c2)C(C)(C)C)cc1 [Compound 178884] | – | – |
| > 10 | – | Cc1ncsc1-c1ccc(CNC(=O)[C@@H]2C[C@@H](O)CN2C(=O)[C@@H](NC(=O)COCCOCCNc2ccc3nc(-c4ccc(-c5ccc(N(C)C)nc5)cc4C(F)(F)F)sc3c2)C(C)(C)C)cc1 [Compound 180187] | – | – |
| < 0.01 | concentration-dependent inhibition | O=C1CCC(N2Cc3cc(OCCOCCNc4cc(-c5ccc(-c6nc7ccc(F)cc7s6)cc5)ccn4)ccc3C2=O)C(=O)N1 (stereo not shown) [Compound 180948] | – | – |
| > 10 | – | CN(C)c1ccc(-c2ccc(-c3nc4ccc(OCCOCCOc5cccc6c5CN(C5CCC(=O)NC5=O)C6=O)cc4s3)c(C(F)(F)F)c2)cn1 (stereo not shown) [Compound 180950] | – | – |
| > 10 | – | CN(C)c1ccc(-c2ccc(-c3nc4ccc(OCCCOc5ccc6c(c5)CN(C5CCC(=O)NC5=O)C6=O)cc4s3)cc2)cn1 (stereo not shown) [Compound 184605] | – | – |
| > 10 | – | CN(C)c1ccc(-c2ccc(-c3nc4ccc(NCCOCCOc5cccc6c5CN(C5CCC(=O)NC5=O)C6=O)cc4s3)c(C(F)(F)F)c2)cn1 (stereo not shown) [Compound 185563] | – | – |
| > 10 | – | CN(C)c1ccc(-c2ccc(-c3nc4ccc(OCCCCC(=O)Nc5cccc6c5CN(C5CCC(=O)NC5=O)C6=O)cc4s3)cc2)cn1 (stereo not shown) [Compound 189149] | – | – |
